According to the supplement of paper PMC5844555:

Columns and labels:
Assay in all cases: 3' UTR reporter interaction score (median-centred robust z-score of log2 firefly/Renilla activity); higher = less repression of the 3' UTR reporter
Details in all cases: HEK293T; 48 h
ZEB2 = test system: ZEB2
Summary of the method: (§1)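 Firefly and Renilla luciferase activities were read 48 h post-transfection in HEK293T cells (10,000/well, 96-well plates). The cells had received 100 ng firefly luc2P reporter bearing the gene's 3' UTR, 20 ng Renilla pRL-TK control and 2.5 pmol miRNA mimic via DharmaFECT Duo. The interaction score, where more negative means interaction, is a per-plate robust z-score (median, median absolute deviation) of the log firefly/Renilla ratio, median-centred per miRNA and averaged over at least two independent screens.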

PHOX2B = test system: PHOX2B
Summary of the method: as §1

PHF6 = test system: PHF6
Summary of the method: as §1

BRCA2 = test system: BRCA2
Summary of the method: as §1

EZH2 = test system: EZH2
Summary of the method: as §1

NOTCH1 = test system: NOTCH1
Summary of the method: as §1

MYB = test system: MYB
Summary of the method: as §1

FBXW7 = test system: FBXW7
Summary of the method: as §1

TP53 = test system: TP53
Summary of the method: as §1

RB1 = test system: RB1
Summary of the method: as §1

MYC = test system: MYC
Summary of the method: as §1

MYCN = test system: MYCN
Summary of the method: as §1

MYT1L = test system: MYT1L
Summary of the method: as §1

HRAS = test system: HRAS
Summary of the method: as §1

Sequence | 3' UTR reporter interaction score (ZEB2) | 3' UTR reporter interaction score (PHOX2B) | 3' UTR reporter interaction score (PHF6) | 3' UTR reporter interaction score (BRCA2) | 3' UTR reporter interaction score (EZH2) | 3' UTR reporter interaction score (NOTCH1) | 3' UTR reporter interaction score (MYB) | 3' UTR reporter interaction score (FBXW7) | 3' UTR reporter interaction score (TP53) | 3' UTR reporter interaction score (RB1) | 3' UTR reporter interaction score (MYC) | 3' UTR reporter interaction score (MYCN) | 3' UTR reporter interaction score (MYT1L) | 3' UTR reporter interaction score (HRAS)
CCACUGCCCCAGGUGCUGCUGG | -1.03 | 0.479 | 0.422 | -0.289 | -0.183 | -1.62 | 0 | -0.902 | -1.28 | 0.0205 | 0.494 | 0.562 | 1.35 | -0.594
CCCAGAUAAUGGCACUCUCAA | 0.427 | 0.745 | -0.296 | 0.00154 | 0.0427 | -0.834 | 0.409 | -0.29 | -0.804 | -2.36 | 0.82 | -0.998 | 0.0372 | 0.111
CCCAGUGUUCAGACUACCUGUUC | -0.517 | -0.196 | 0.112 | 0.218 | -0.25 | 0.374 | 1.64 | -0.85 | -0.337 | -1.81 | 0.666 | 0.198 | 2.99 | -0.0015
CCCAGUGUUUAGACUAUCUGUUC | 0.476 | -0.251 | 0.458 | 0.494 | -0.185 | -0.226 | 0.059 | -0.738 | -0.323 | -0.794 | 0.186 | 0.905 | 1.93 | -0.315
CCUCUAGAUGGAAGCACUGUCU | 0.763 | -0.512 | 0.44 | 1.43 | 0.875 | 0.00559 | 1.05 | -0.485 | -0.0691 | 1.24 | -0.352 | -0.452 | -0.377 | 0.49
CCUCUGGGCCCUUCCUCCAG | 0.525 | -0.825 | 1.9 | 1.66 | -0.302 | -0.555 | 0.205 | -0.553 | 1.37 | 0.604 | -0.307 | 0.2 | -1.13 | 0.196
CGAAUGUUGCUCGGUGAACCCCU | -0.941 | 1.32 | -1.07 | -0.821 | -0.254 | 1.32 | 0.287 | 0.304 | -0.241 | 0.281 | 0.217 | 0.119 | 0.642 | -0.194
CGCAUCCCCUAGGGCAUUGGUGU | -0.392 | 0.221 | -0.956 | 0.625 | 0.639 | -1.34 | -0.38 | -0.0954 | 0.263 | -0.799 | 0.19 | -0.239 | -3.16 | 1.06
CGGGUGGAUCACGAUGCAAUUU | -1.87 | -0.988 | -0.0241 | 0.639 | -0.645 | 0.128 | -0.118 | 0.899 | 0.809 | 0.702 | 0.166 | 0.00745 | 0.0585 | -0.371
CUAAUAGUAUCUACCACAAUAAA | 0.675 | 0.231 | -0.303 | 0.274 | 0.167 | 0.264 | 1.16 | 0.465 | -0.375 | -0.459 | -0.306 | 0.604 | -0.606 | -0.78
CUACAAAGGGAAGCACUUUCUC | -3.59 | 1.76 | 0.716 | -0.805 | 0.77 | 0.148 | 0.666 | -0.7 | -1.31 | 0.032 | 0.411 | -0.614 | 0.757 | -1.25
CUCCAGAGGGAAGUACUUUCU | 0.514 | 0.786 | 1.27 | -0.139 | -0.448 | -0.176 | 1.53 | 1.4 | -0.641 | -2.92 | -0.333 | -0.236 | 1.19 | -1.03
CUCCAGAGGGAUGCACUUUCU | -0.701 | 1.08 | 1.04 | -0.169 | 0.363 | 0.885 | -0.659 | -0.219 | 0.339 | 0.459 | 0.629 | -0.234 | 0.128 | -0.937
CUCUAGAGGGAAGCACUUUCU | 1.31 | -1.07 | -0.252 | -0.166 | -0.021 | 0.59 | 1.78 | -1.73 | -0.127 | -0.897 | 0.565 | -0.174 | -0.138 | 0.934
CUCUAGAGGGAAGCACUUUCUCU | -0.685 | -2.05 | -0.193 | -0.0386 | -0.139 | 0.176 | 2.18 | -2.17 | -0.432 | -0.223 | 0.549 | -0.181 | 0.381 | 1.4
CUCUAGAGGGAAGCGCUUUCUGUU | 0.37 | -1.2 | -0.0745 | -0.378 | -0.269 | 1.16 | 1.71 | -0.944 | 0.361 | -0.121 | 0.337 | -0.278 | 0.721 | -0.0223
CUCUUGAGGGAAGCACUUUCUGUU | -0.69 | -0.0184 | -2.75 | 0.199 | 1.02 | -0.119 | 1.52 | 1.21 | 0.305 | -0.331 | -0.277 | 0.894 | 0.407 | -0.664
CUGAAGUGAUGUGUAACUGAUCAG | -0.764 | -1.07 | -0.442 | -1.33 | 0.809 | 2.11 | -1.34 | -0.0116 | 0.516 | -0.534 | 0.252 | -0.441 | 1.21 | 0.253
CUGACCUAUGAAUUGACAGCC | -6.22 | -1.28 | -3.78 | -0.668 | -0.124 | 0.282 | 0.682 | -0.577 | 0.334 | -2.94 | 1.2 | 1.31 | 0.445 | 0.344
